Experimental data reported in article PMC3422259, “Additive Mixture Effects of Estrogenic Chemicals in Human Cell-Based Assays Can Be Influenced by Inclusion of Chemicals with Differing Effect Profiles” (PLoS ONE, 2012).
“Also recorded” adds a separate entry of the source. Where two headings read alike, the source gives them in different places.

What was measured:
yeast estrogen screen = test system: yeast estrogen screen; set-up: method as in PMID 19499261; conditions: cited from earlier work
MCF-7 cells [1] = test: Estrogenicity assay, mitogenic endpoint (ESCREEN); conditions: for Signs of estrogenicity (in words): chemical screened as potential modulator, tested alone; for Signs of estrogenicity: Active at concentration: ‘Active’ = positive signal clearly distinguishable from assay variability and noise
Method: The ESCREEN assay was performed using cloned MCF-7 cells (described in [6], gifted from A. Soto, Boston) and the established ESCREEN method was followed using an adapted 96-well format. Cells were cultured in DMEM (5% FCS). For experiments, cells were seeded in clear polystyrene 96 well plates at a density of 2,500 cells/well and allowed to attach for 24 hours before washing with rinse media (phenol red-free DMEM, no supplements). […] Test chemicals were dissolved in ethanol to give stock solutions of millimolar concentrations. Test and control solutions were diluted prior to application in dosing media (phenol red free DMEM, 10% charcoal-dextran stripped FCS). The final concentration of ethanol was 0.5% in test and control wells. […] At all stages, media removal from cells was carried out gently and in a controlled fashion by use of an electronic multichannel pipette set to the lowest speed possible. Controls were run as eight replicate wells per plate and compounds were tested in a dilution series comprising eight concentrations, each concentration tested in two replicate wells per plate. The plate layout was designed to reduce variation due to evaporation and spreading of test chemicals, and had been previously optimised in the laboratory. After application of test solutions, plates were incubated for 120 hours before fixation with 10% trichloroacetic acid and sulforhodamine B (SRB) staining to measure protein and allow the indirect quantification of cell number.
(§1) Experiments were performed on different days meaning that results for different dilution series and different batches of the test chemicals were obtained on different days. Each single chemical was tested in three or more independent experiments. Use of normalisation meant that data from different experiments could be reliably combined and compared, as discussed previously. Data was expressed relative to the positive control, rather than as fold change from the vehicle response, for two reasons.
(§2) Results from regression analysis for each test chemicals were used to predict the CA effect for fixed-ratio mixtures designed on 1) equi-effective concentrations (balanced design), 2) possible human serum levels (non-balanced design). The original mathematical formulation of CA that defines for a mixture composed of n components with concentration c1 of the first component, c2 of the second component, and cn for the n-th component a combination effect X is [drawing 1] (1) Here, ECX1, ECX1 …, ECXn are the concentrations of the individual components that on their own produce the same effect X as the mixture, [15] The quotients cn/ECXn are called toxic units and scale all compounds in the mixture relative to their toxicity. They can be interpreted as the contribution of the compound to the total mixture concentration that is expected to produce the mixture effect X. According to equation 1, a mixture effect for a pre-defined effect level X is described only implicitly. However, if the individual concentrations ci are expressed as relative fractions pi to the total mixture concentration ECxMix, then equation 1 can be re-arranged to [drawing 2] (2) which allows the direct calculation of the mixture concentration that is expected to produce the mixture effect X. To form a prediction curve, equation 2 is iterated through for various effect levels resulting in sets of effects and their associated predicted mixture concentration which are then plotted to produce a graph of the effect prediction.
Both equations 1 and 2 require knowledge of the concentration of each mixture component that on its own produces the effect magnitude under consideration. For this reason, these equations cannot be used for predicting mixture effects that exceed the maximal effect of the least efficacious component, because those effect concentrations cannot be defined.

MCF-7 cells [2] = test: Modulation studies (ESCREEN only): effect of potential modulators on the response evoked by a reference mixture of estrogens (REFmix); assay type: cell-based, human; conditions: for Modulation of the REFmix effect (in words) / Concentration at which complete suppression (full inhibition) of REFmix effect was reached: ESCREEN; for Observed modulation: ESCREEN response to REFmix (Mixture 3d, ca. 50% effect), screening, one experiment; for Concentration at which complete suppression (full inhibition) of REFmix effect was reached: individual modulator screening
Description: Modulation studies comprised screening of individual modulators in low power experiments accompanied by parallel testing of an equimolar mixture of all modulators. This combination of low power screening and mixture testing provides the opportunity to assess a high number of chemicals (16 in this case) without a prohibitive amount of experimental effort. In this case the effects of 16 modulators could be evaluated using a total of 19 experimental plates (16 for screening and 3 for mixture testing).
To normalize for small changes in the absolute value of the positive control and the control response to the selected REFmix concentration, the response evoked by the REFmix control on each plate was defined as the 50% effect and all modulator study results are normalized to that value.
A mixture of modulators (MODmix) was also tested and was composed with a fixed ratio of equimolar concentrations, since the activity of each modulator was not known at the time of designing the mixture.
In these modulator studies, we examined 16 single chemicals (listed in Table 7) and an equimolar mixture of all 16 components for their ability to modulate the effects of a reference mixture (REFmix) which contained 14 food additives and contaminants (Table 1, Mixture 3d). […] Single chemicals were tested individually in single experiments (screening) and then a mixture composed using a fixed ratio of equal molarities was subjected to repeated testing.
Figure 5 Results of modulation studies. […] Experimental results are shown as grey circles representing each replicate (duplicate testing within the assay) and obtained in three independent (A) or one (B–Q) experiment (s). Experimental results were normalized by setting the value observed for the REFmix alone, the concentration of which was selected to evoke a […] of ca. 50%, to 0.5. The positive control values (black circles, eight replicates per experimental plate, 25 nM estradiol) are indicated adjacent to the y-axis. […] A black line indicates a LOESS spline fit to the data (A–Q) and a grey line indicates linear regression fit to the data for individual modulators (B–Q). A vertical dotted line is drawn at a mixture concentration of 1.6 µM (A) or at the concentration of each modulator present at that mixture concentration (0.1 uM, B–Q). Visual inspection of the individual modulator results (B–Q) was used to identify possible modulation, i.e. when the experimental data appears to deviate from the linear regression, or when the linear regression is not horizontal, and when the magnitude of the modulation is outside the variation expected in the assay.

T47D-KBluc cells = test: cells; conditions: ERLUX
Method: T47D-KBluc cells were obtained from the ATCC and the protocol established by the depositing authors was followed. Cells were routinely grown in RPMI media (with 10% foetal calf serum (FCS)). For seven days prior to experiments, cells were maintained in low estrogen conditions by the use of pre-assay media (RPMI, 10% charcoal-dextran stripped FCS, no antibiotics). For experiments, cells were seeded in white polystyrene 96 well plates at a density of 10,000 cells/well and allowed to attach for 24 hours before removal of media, and application of test chemicals. Test chemicals were dissolved in ethanol to give stock solutions of millimolar concentrations. Test and control solutions were obtained by dilution of ethanolic stocks in dosing media (phenol red-free RPMI, 5% charcoal-dextran stripped FCS, no antibiotics), and in all cases the final concentration of ethanol was 0.5%. The positive control was 1 nM estradiol. Positive and vehicle controls were run as eight replicate wells per plate, and compounds were tested in a dilution series comprising eight concentrations, each concentration tested in triplicate. As recommended by Wilson et al. two additional controls were also included on each plate: 1) vehicle control plus an antiestrogen, ICI 182,780 (1 µM), and 2) positive control plus ICI 182,780 (1 µM). […] A crude measure of toxicity was provided by comparing values for treatments that were not positive, with the value of the vehicle control. […] 24 hours after application of test and control solutions, a volume of Steady-Glo assay reagent (Promega) equal to the volume of culture media was added and plates were incubated for ten minutes, with shaking, to allow for cell lysis. Plates were then loaded into a plate reader (FLUOstar Optima, BMG Labtech) and incubated for a further ten minutes in the dark, followed by measurement of luminescence. To reduce variation, the temperature of the plate reader chamber was maintained at 27°C throughout.
as §1
Effect concentrations (ECx) were defined relative to the effects of the estradiol concentration used as the positive control, for example EC50 is the concentration producing an effect of 50% of the positive control (estradiol, 1 nM (ERLUX) or 25 nM (ESCREEN)).
as §2, with “implicitly.” for “implicitly. However, if the individual concentrations ci are expressed as relative fractions pi to the total mixture concentration ECxMix, then equation 1 can be re-arranged to [drawing 2] (2) which allows the direct calculation of the mixture concentration that is expected to produce the mixture effect X. To form a prediction curve, equation 2 is iterated through for various effect levels resulting in sets of effects and their associated predicted mixture concentration which are then plotted to produce a graph of the effect prediction.”

| SMILES | Modulation of the estrogenicity of estradiol or a ternary mixture of estradiol, estrone and estriol (in words) (yeast estrogen screen) | Modulation of the REFmix effect (in words) (MCF-7 cells [2]) | Observed modulation (MCF-7 cells [2]) | Signs of estrogenicity: Active at concentration (MCF-7 cells [1]; ESCREEN) | Estrogenicity when tested alone (in words) (T47D-KBluc cells) | other results |
| --- | --- | --- | --- | --- | --- | --- |
| Nc1ccc([N+](=O)[O-])cc1[N+](=O)[O-] [2,4-dinitroaniline] | negative modulation | – | – | – | – | – |
| c1ccc2c(c1)cc1ccc3cccc4ccc2c1c34 [Benzo [a] pyrene] | – | clear negative modulation | Clear negative | – | – | Signs of estrogenicity (in words) (MCF-7 cells [1]; ESCREEN): None; Estrogenicity when tested alone (in words) (MCF-7 cells [1]; ESCREEN, listed as BaP): not active; also recorded: not when tested alone; Concentration at which complete suppression (full inhibition) of REFmix effect was reached (MCF-7 cells [2]): ≤ 1 µM; Concentration at which complete suppression (full inhibition) of REFmix effect was reached (MCF-7 cells [2]; listed as BaP): around 1 µM; EC10 (T47D-KBluc cells; concentration producing 10% effect relative to positive control 1 nM estradiol, 24 hours): 862 nM; EC25 (T47D-KBluc cells; concentration producing 25% effect relative to positive control 1 nM estradiol, 24 hours): 2060 nM; Concentration Response Function θ^∧ max (T47D-KBluc cells; estimated maximal model asymptote, effect relative to positive control (1 nM estradiol)): 0.90 |
| CCCCOC(=O)c1ccccc1C(=O)OCCCC [DBP, Di butyl phthalate] | – | possible negative modulation | Possible negative | Active at 10 µM or higher | no estrogenicity | Signs of toxicity (in words) (MCF-7 cells [1]): None |
| CCCCC(CC)COC(=O)c1ccccc1C(=O)OCC(CC)CCCC (centres unmarked) [DEHP, Di ethyl hexyl phthalate] | – | no indication of negative modulation | None | Active at 1 µM or higher | no estrogenicity | Concentration at which estrogenicity occurred when tested alone (MCF-7 cells [1]; ESCREEN): greater than 1 µM; Concentration at which toxicity began (MCF-7 cells [1]; ESCREEN, before a full estrogenic response was reached): 5 µM; Signs of toxicity at the highest concentrations (in words) (MCF-7 cells [1]; ESCREEN, highest concentrations shown in Figure 2, may indicate toxicity): decline in response |
| CCOC(=O)c1ccccc1C(=O)OCC [DEP, Di ethyl phthalate] | – | no indication of negative modulation | None | Active at 10 µM or higher | estrogenic | Signs of toxicity (in words) (MCF-7 cells [1]; ESCREEN): None; Concentration at which estrogenic activity seen (T47D-KBluc cells; and above): 0.1 to 1 µM |
| C[S+](C)[O-] [DMSO] | no effect | – | – | – | – | – |
| [Cl][Hg][Cl] [HgCl2, Mercury chloride] | no effect | no indication of negative modulation | None | – | – | Signs of estrogenicity (in words) (MCF-7 cells [1]; ESCREEN): None; Signs of toxicity: Possible toxicity at concentration (MCF-7 cells [1]; ESCREEN, decrease in value for treated wells below vehicle controls, assignment not certain): Possible toxicity at 10 µM and greater |
| C[C@@H]1C[C@@H]([C@H](O)CC2CC(=O)NC(=O)C2)C(=O)[C@@H](C)C1 [cycloheximide, reference compound] | negative modulation | – | – | – | – | – |
